“Also recorded” adds a separate entry of the source.
Molecular target: T1, full-length KDM4A-F185A (asKDM4A) (Homo sapiens, UniProt O75164, F185A)
T1 construct: we generated the F185A mutation in full-length KDM4A carrying all of the functional domains; host or cells: HEK293T
Experiment: H3K9me3 Western blot of nuclear extracts of transfected HEK293T cells
Type: cell-based
Details: varying concentrations (25-200 µM)
Procedure: HEK293T cells were transiently transfected with asKDM4A and treated with varying concentrations of 6A or 6B. […] To further confirm the activity of the enzyme–inhibitor pair, we performed tandem mass spectrometry of tryptic histones isolated from HEK293T cells expressing asKDM4A in the presence or absence of 100 μM 6A.
KDM4A mammalian expression plasmid in CMV vector was purchased from Addgene (plasmid #24180). KDM4B mammalian expression plasmid in CMV vector was purchased from Addgene (plasmid #24181). KDM4C mammalian expression plasmid in CMV vector was purchased from Addgene (plasmid #24214). KDM4D mammalian expression plasmid in pReciever vector was purchased from Genecopoia (EX-Z0917-M06.) KDME mammalian expression plasmid in pRP-EXP was designed from Vector Builder. The KDM4A-F185A, KDM4B-F186A, KDM4C -F187A, KDM4D-F189A, and KDM4E F186A mutants were generated using Quikchange Lightening Mutagenesis Kit (Agilent) according to manufacturer’s protocol and confirmed by Sanger […]
For the time dependent imaging, cells containing the transfected KDM4A mutant were identified by their HA signal. […] The mean signal was then measured for H3K9me3 or BrdU only within the cells expressing the KDM4A mutant. To compare changes in H3K9me3 or BrdU between trials, the quantification values were normalized to the mean signal at t=0. […]

T1 sequence (O75164 whole entry F185A, the tested form may be a part): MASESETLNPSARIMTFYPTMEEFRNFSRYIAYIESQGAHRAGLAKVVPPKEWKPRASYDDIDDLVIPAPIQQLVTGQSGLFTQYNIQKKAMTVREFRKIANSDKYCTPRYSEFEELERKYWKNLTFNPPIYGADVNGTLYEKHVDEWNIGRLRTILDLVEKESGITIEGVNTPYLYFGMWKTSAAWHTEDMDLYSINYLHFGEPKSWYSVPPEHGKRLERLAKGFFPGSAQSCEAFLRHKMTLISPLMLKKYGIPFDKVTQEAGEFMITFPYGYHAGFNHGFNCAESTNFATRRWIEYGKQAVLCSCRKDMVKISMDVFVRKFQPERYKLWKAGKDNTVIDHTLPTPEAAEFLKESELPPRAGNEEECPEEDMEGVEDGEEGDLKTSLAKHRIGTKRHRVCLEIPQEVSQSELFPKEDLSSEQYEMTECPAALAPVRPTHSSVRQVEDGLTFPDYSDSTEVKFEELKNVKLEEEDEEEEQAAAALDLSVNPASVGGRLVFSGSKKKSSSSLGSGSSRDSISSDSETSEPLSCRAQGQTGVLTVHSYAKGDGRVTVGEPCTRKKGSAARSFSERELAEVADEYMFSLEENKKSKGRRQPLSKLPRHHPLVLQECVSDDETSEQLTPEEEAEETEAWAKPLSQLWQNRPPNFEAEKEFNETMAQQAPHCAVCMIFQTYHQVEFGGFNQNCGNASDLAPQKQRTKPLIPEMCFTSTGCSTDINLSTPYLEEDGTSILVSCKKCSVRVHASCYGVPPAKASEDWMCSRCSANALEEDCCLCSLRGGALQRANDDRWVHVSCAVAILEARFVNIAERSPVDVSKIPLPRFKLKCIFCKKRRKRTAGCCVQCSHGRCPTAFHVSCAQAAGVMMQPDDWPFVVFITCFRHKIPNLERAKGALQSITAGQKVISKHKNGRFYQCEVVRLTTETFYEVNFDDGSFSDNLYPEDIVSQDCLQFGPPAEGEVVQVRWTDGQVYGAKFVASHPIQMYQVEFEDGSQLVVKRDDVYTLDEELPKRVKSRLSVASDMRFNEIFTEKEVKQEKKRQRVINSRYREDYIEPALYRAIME

| Compound | inhibition of asKDM4A (F185A) H3K9me3 demethylation |
| --- | --- |
| CCCCCCCCOC(=O)C(=O)NC(CC(C)C)C(=O)O [6A, L-Leu octyl-ester NOG] | Dose-dependent inhibition; also recorded: inhibited by both prodrugs in a dose-dependent manner |
| CC(C)CC(NC(=O)C(=O)OCc1cccc(C(F)(F)F)c1)C(=O)O [6B, L-Leu TFMB-ester NOG] | Dose-dependent inhibition; also recorded: inhibited by both prodrugs in a dose-dependent manner |
